System: cell lines from the Cancer Cell Line Encyclopedia (CCLE)
Experiment: High-throughput cell viability assay, CCLE cell line panel (n = 356)
Type: cell-based, human
Procedure: Cell lines were partitioned into sensitive and insensitive groups based on compound potency (IC50). […] All other cell lines were obtained from ATCC (American Type Culture Collection), DSMZ (Deutsche Sammlung von Mikroorganismen und Zellkulturen), and HSRRB (Health Science Research Resources Bank) and cultured in RPMI or Dulbecco's modified Eagle's medium plus 10% FBS (Invitrogen, Carlsbad, CA) at 37°C, 5% CO2.

[1] = PE/CA-PJ34 (clone C12), TP53 MUT
[2] = cell line A172, central_nervous_system, TP53 WT
[3] = cell line BICR 31, upper_aerodigestive_tract, TP53 MUT
[4] = cell line CAL-85-1, breast, TP53 MUT
[5] = cell line CAMA-1, breast, TP53 MUT
[6] = cell line CCK-81, large_intestine, TP53 MUT
[7] = cell line COV504, ovary, TP53 MUT
[8] = cell line Capan-2, pancreas, TP53 WT
[9] = cell line ES-2, ovary, TP53 MUT
[10] = cell line ESS-1, endometrium, TP53 MUT
[11] = cell line HEC-108, endometrium, TP53 MUT
[12] = cell line HEC-265, endometrium, TP53 WT
[13] = cell line HSC-2, upper_aerodigestive_tract, TP53 MUT
[14] = cell line Hs 618.T, lung, TP53 WT
[15] = cell line Hs 888.T, bone, TP53 WT
[16] = cell line Hs 944.T, skin, TP53 WT
[17] = cell line IM95, stomach, TP53 WT

COc1cc2c(cc1OC(C)C)[C@H](c1ccc(Cl)cc1)N(c1ccc(N(C)C[C@H]3CC[C@H](N4CCNC(=O)C4)CC3)cc1)C(=O)C2 [NVP-CFC218]
Amax (ONS-76, TP53 WT): -16.12% | sensitivity call (ONS-76, TP53 WT): insensitive (Sensitivity call for each compound was applied according to a cut-off of 4 µM for IC50 and -50% for Amax) | Amax (OV-90, TP53 MUT): -1.39% | sensitivity call (OV-90, TP53 MUT): insensitive (Sensitivity call for each compound was applied according to a cut-off of 4 µM for IC50 and -50% for Amax) | Amax (P3HR-1, TP53 MUT): -48.91% | sensitivity call (P3HR-1, TP53 MUT): insensitive (Sensitivity call for each compound was applied according to a cut-off of 4 µM for IC50 and -50% for Amax) | Amax (P31/FUJ, TP53 MUT): 4.23% | sensitivity call (P31/FUJ, TP53 MUT): insensitive (Sensitivity call for each compound was applied according to a cut-off of 4 µM for IC50 and -50% for Amax) | Amax (PA-TU-8902, TP53 MUT): 0.96% | sensitivity call (PA-TU-8902, TP53 MUT): insensitive (Sensitivity call for each compound was applied according to a cut-off of 4 µM for IC50 and -50% for Amax) | Amax [1]: 1.01% | sensitivity call [1]: insensitive (Sensitivity call for each compound was applied according to a cut-off of 4 µM for IC50 and -50% for Amax) | Amax (PK-45H, TP53 WT): -18.84% | sensitivity call (PK-45H, TP53 WT): insensitive (Sensitivity call for each compound was applied according to a cut-off of 4 µM for IC50 and -50% for Amax) | Amax (PL-21, TP53 MUT): -37.95% | sensitivity call (PL-21, TP53 MUT): insensitive (Sensitivity call for each compound was applied according to a cut-off of 4 µM for IC50 and -50% for Amax) | Amax (QGP-1, TP53 WT): 6.30% | sensitivity call (QGP-1, TP53 WT): insensitive (Sensitivity call for each compound was applied according to a cut-off of 4 µM for IC50 and -50% for Amax) | Amax (Raji, TP53 MUT): -0.41% | sensitivity call (Raji, TP53 MUT): insensitive (Sensitivity call for each compound was applied according to a cut-off of 4 µM for IC50 and -50% for Amax) | Amax (SCC-4, TP53 MUT): -11.24% | sensitivity call (SCC-4, TP53 MUT): insensitive (Sensitivity call for each compound was applied according to a cut-off of 4 µM for IC50 and -50% for Amax) | Amax (SCC-9, TP53 MUT): 10.57% | sensitivity call (SCC-9, TP53 MUT): insensitive (Sensitivity call for each compound was applied according to a cut-off of 4 µM for IC50 and -50% for Amax) | Amax (SK-N-FI, TP53 MUT): -7.80% | sensitivity call (SK-N-FI, TP53 MUT): insensitive (Sensitivity call for each compound was applied according to a cut-off of 4 µM for IC50 and -50% for Amax) | Amax (SNU-475, TP53 MUT): -7.74% | sensitivity call (SNU-475, TP53 MUT): insensitive (Sensitivity call for each compound was applied according to a cut-off of 4 µM for IC50 and -50% for Amax) | Amax (SU-DHL-8, TP53 MUT): 11.70% | sensitivity call (SU-DHL-8, TP53 MUT): insensitive (Sensitivity call for each compound was applied according to a cut-off of 4 µM for IC50 and -50% for Amax) | Amax (SW579, TP53 MUT): -2.22% | sensitivity call (SW579, TP53 MUT): insensitive (Sensitivity call for each compound was applied according to a cut-off of 4 µM for IC50 and -50% for Amax) | Amax (SW 1271, TP53 MUT): -7.26% | sensitivity call (SW 1271, TP53 MUT): insensitive (Sensitivity call for each compound was applied according to a cut-off of 4 µM for IC50 and -50% for Amax) | Amax (SW 1990, TP53 MUT): -0.73% | sensitivity call (SW 1990, TP53 MUT): insensitive (Sensitivity call for each compound was applied according to a cut-off of 4 µM for IC50 and -50% for Amax) | Amax (TE-1, TP53 MUT): -0.82% | sensitivity call (TE-1, TP53 MUT): insensitive (Sensitivity call for each compound was applied according to a cut-off of 4 µM for IC50 and -50% for Amax) | Amax (TE-5, TP53 MUT): 31.38% | sensitivity call (TE-5, TP53 MUT): insensitive (Sensitivity call for each compound was applied according to a cut-off of 4 µM for IC50 and -50% for Amax) | Amax (U-87 MG, TP53 WT): -45.86% | sensitivity call (U-87 MG, TP53 WT): insensitive (Sensitivity call for each compound was applied according to a cut-off of 4 µM for IC50 and -50% for Amax) | Amax (WM-266-4, TP53 WT): -75.96% | sensitivity call (WM-266-4, TP53 WT): sensitive (Sensitivity call for each compound was applied according to a cut-off of 4 µM for IC50 and -50% for Amax) | Amax (WM-983B, TP53 MUT): -25.79% | sensitivity call (WM-983B, TP53 MUT): insensitive (Sensitivity call for each compound was applied according to a cut-off of 4 µM for IC50 and -50% for Amax) | Amax (YKG1, TP53 MUT): -29.61% | sensitivity call (YKG1, TP53 MUT): insensitive (Sensitivity call for each compound was applied according to a cut-off of 4 µM for IC50 and -50% for Amax) | NVP- CFC218 Amax (%) [2]: -49.68% | NVP- CFC218 sensitivity call [2]: insensitive (Sensitivity call for each compound was applied according to a cut-off of 4 µM for IC50 and -50% for Amax) | NVP- CFC218 Amax (%) [3]: -33.34% | NVP- CFC218 sensitivity call [3]: insensitive (Sensitivity call for each compound was applied according to a cut-off of 4 µM for IC50 and -50% for Amax) | NVP- CFC218 Amax (%) (cell line C3A, liver, TP53 WT): -7.36% | NVP- CFC218 sensitivity call (cell line C3A, liver, TP53 WT): insensitive (Sensitivity call for each compound was applied according to a cut-off of 4 µM for IC50 and -50% for Amax) | NVP- CFC218 Amax (%) (cell line C32, skin, TP53 WT): -3.08% | NVP- CFC218 sensitivity call (cell line C32, skin, TP53 WT): insensitive (Sensitivity call for each compound was applied according to a cut-off of 4 µM for IC50 and -50% for Amax) | NVP- CFC218 Amax (%) [4]: -3.57% | NVP- CFC218 sensitivity call [4]: insensitive (Sensitivity call for each compound was applied according to a cut-off of 4 µM for IC50 and -50% for Amax) | NVP- CFC218 Amax (%) [5]: -26.17% | NVP- CFC218 sensitivity call [5]: insensitive (Sensitivity call for each compound was applied according to a cut-off of 4 µM for IC50 and -50% for Amax) | NVP- CFC218 Amax (%) [6]: 4.13% | NVP- CFC218 sensitivity call [6]: insensitive (Sensitivity call for each compound was applied according to a cut-off of 4 µM for IC50 and -50% for Amax) | NVP- CFC218 Amax (%) [7]: -21.97% | NVP- CFC218 sensitivity call [7]: insensitive (Sensitivity call for each compound was applied according to a cut-off of 4 µM for IC50 and -50% for Amax) | NVP- CFC218 Amax (%) [8]: -4.99% | NVP- CFC218 sensitivity call [8]: insensitive (Sensitivity call for each compound was applied according to a cut-off of 4 µM for IC50 and -50% for Amax) | NVP- CFC218 Amax (%) [9]: -22.65% | NVP- CFC218 sensitivity call [9]: insensitive (Sensitivity call for each compound was applied according to a cut-off of 4 µM for IC50 and -50% for Amax) | NVP- CFC218 Amax (%) [10]: 0.05% | NVP- CFC218 sensitivity call [10]: insensitive (Sensitivity call for each compound was applied according to a cut-off of 4 µM for IC50 and -50% for Amax) | NVP- CFC218 Amax (%) [11]: -7.25% | NVP- CFC218 sensitivity call [11]: insensitive (Sensitivity call for each compound was applied according to a cut-off of 4 µM for IC50 and -50% for Amax) | NVP- CFC218 Amax (%) [12]: -37.19% | NVP- CFC218 sensitivity call [12]: insensitive (Sensitivity call for each compound was applied according to a cut-off of 4 µM for IC50 and -50% for Amax) | NVP- CFC218 Amax (%) [13]: 8.13% | NVP- CFC218 sensitivity call [13]: insensitive (Sensitivity call for each compound was applied according to a cut-off of 4 µM for IC50 and -50% for Amax) | NVP- CFC218 Amax (%) [14]: -49.34% | NVP- CFC218 sensitivity call [14]: insensitive (Sensitivity call for each compound was applied according to a cut-off of 4 µM for IC50 and -50% for Amax) | NVP- CFC218 Amax (%) [15]: -45.50% | NVP- CFC218 sensitivity call [15]: insensitive (Sensitivity call for each compound was applied according to a cut-off of 4 µM for IC50 and -50% for Amax) | NVP- CFC218 Amax (%) [16]: -32.86% | NVP- CFC218 sensitivity call [16]: insensitive (Sensitivity call for each compound was applied according to a cut-off of 4 µM for IC50 and -50% for Amax) | NVP- CFC218 Amax (%) [17]: 33.79% | NVP- CFC218 sensitivity call [17]: insensitive (Sensitivity call for each compound was applied according to a cut-off of 4 µM for IC50 and -50% for Amax) | NVP- CFC218 Amax (%) (cell line JHOS-2, ovary, TP53 MUT): -32.44%

Source: article PMC4468608, “A distinct p53 target gene set predicts for response to the selective p53–HDM2 inhibitor NVP-CGM097” (eLife, 2015)
